One series concerns MV-4-11 cells (FLT3-ITD). Kind of series: CellTiter-Glo cell viability (single agent and combination). Type of series: cell-based. To be noted: MV-4-11, MPC-0767 1 μM, 72 hours. The procedure:
Three cell lines which harbor FLT3-ITD were used for the drug combination studies (MV-4-11, MOLM-13, and MOLM-14).
Cells were treated with the drugs (single agent or combination) for 72 hours. Drug combination activity was determined by first measuring cell viability with CellTiter-Glo®, followed by the calculation of the EC50 corresponding to single agent activity, using the R DRC package (R Core Team, 2017). The combination index (CI) values were computed using the Chou-Talalay method (Chou T, Cancer Research., 2010 70(2): 440-6.), based on the viability of each drug alone and in combination, across all concentrations tested. In brief, CI was defined as: […]
Loss of function mutations of KDM6A are observed in FLT3-ITD AML (Garg et al., 2015 Blood 126 (22):2491-501). […] To therapeutically exploit this finding, we hypothesized that inhibiting EZH2, the histone H3K27 methyltransferase that functionally opposes KDM6A, would enhance sensitivity to MPC-0767. To test this hypothesis, a FLT3-ITD cell line (MV-4-11) was used and treated with either of the two clinical stage EZH2 inhibitors, EPZ-6438 and CPI-1205, at 8 different concentrations for 4 days. Following this time, cells were counted, reseeded and treated with 8 concentrations of EZH2 inhibitor alone, 8 concentrations of MPC-0767 alone, or the combination of the two (64 total combinations).
On the technique in general: ATP-based viability assays read luminescence as a measure of living cells.

The test system of series [1] is EGFR wild type (WT) in BaF3 cells. The series can be described thus: Cell surface EGFR expression in BaF3 cells by flow cytometry. In kind it is cell-based, murine. To be noted: Mus musculus; BaF3, 24 hours; read-out: EC50 for reduction of cell surface EGFR WT. The source says: (§1) To determine whether MPC-0767 can also promote degradation of an EGFR exon20ins mutant, the BaF3 murine cell line was used (Warmuth et al., Curr Opin Oncol., 200719: 55-60). This cell line is dependent upon exogenous IL-3 for survival/growth but upon introduction of an oncogene, the cells no longer depend on exogenous IL-3, and instead survival is driven by the introduced oncogene. Thus, drugs that target the introduced oncogene will reduce BaF3 cell viability providing a mechanism to screen small molecules against relevant oncogenic mutations that arise in the clinic.
(§2) BaF3 cells harboring EGFR wild type (WT) or EGFR exon20 V769_D770insASV mutant were treated with increasing concentrations of MPC-0767 for 24 hours. After this time, cells were harvested for flow cytometry to assess cell surface EGFR expression (antibody for detection recognized both WT and mutant proteins). […] We further tested whether this finding translated to reduced survival in BaF3 cells expressing the EGFR mutant. Parental BaF3 cells (no mutant) or cells harboring EGFR exon20 V769_D770insASV were treated with increasing concentrations of MPC-0767 for 72 hours after which cell viability was determined using CellTiter-Glo®.
Background: A flow cytometer gives signals particle by particle.

Series [2] has as its system EGFR exon20 V769_D770insASV mutant in BaF3 cells. Described as above. In kind it is cell-based, murine. To be noted: Mus musculus; BaF3, 24 hours; read-out: EC50 for reduction of cell surface EGFR exon20 V769_D770insASV mutant.
Description: as §1, §2

For another series, the system named is HL60 (HL-60) cells. Kind of series: CellTiter-Glo cell viability (single agent and combination). In kind it is cell-based. To be noted: HL60, 72 h.
Series [3] deals with FLT3 mutants in BaF3 cells. The series can be described thus: Cell surface FLT3 in transfected BaF3 cells by flow cytometry. In kind it is cell-based, murine. To be noted: BaF3, cell surface expression, 24 hours. The procedure:
(§3) We next sought to determine whether MPC-0767 can also promote the degradation of other FLT3 mutants that have been reported to confer resistance to FLT3 inhibitors. To do this, we again utilized the BaF3 murine cell line into which the following FLT3 mutants were transfected: FLT3 wild-type, FLT3-ITD, D835V, FLT3-ITD D835V, D835Y, FLT3-ITD D835Y, D835H, FLT3-ITD D835H, F691L, or FLT3-ITD F691L.
(§4) After puromycin selection, cells were treated with increasing concentrations of MPC-0767 (20-10000 nM) for 24 hours and then stained for cell surface expression of FLT3 (and mutants) and the median signal expression was quantified by flow cytometry.

Another series has as its system FLT3 WT in BaF3 cells. The series is described as above. Type of series: cell-based, murine. To be noted: BaF3, 20-10000 nM, 24 hours. How it is done:
as §3, §4

Series [4] relates to murine MC38 colon cancer cell line. Kind of series: MC38 syngeneic tumor model.
Description: Tumor size (mm^3), P=0.01 (Student t-test) (A) and percent body weight change (B) are shown.
When the mean tumor volume reached 73 mm^3 in size, mice were randomized into 2 groups of 6. […] Tumor measurements (caliper) were taken on the indicated days. […] Student t-test was used to evaluate the statistical significance of the difference between these groups, P=0.01.
The subject of another series is ME1 (ME-1) cells. The series can be described thus: CellTiter-Glo cell viability (single agent and combination). In kind it is cell-based. To be noted: ME1, 72 h.
In series [5] the test system is OCIAML2 (OCI-AML-2) cells. Described as above.
Description: To determine whether MPC-0767 is efficacious against non-FLT3-ITD AML cells, we tested a panel of FLT3-wild type (FLT3-WT) AML cell lines and primary AML blasts for sensitivity to MPC-0767. Cells were treated with MPC-0767 for 72 hours before determining cell viability using the CellTiter-Glo® assay. […] To test whether the combination of MPC-0767 was synergistic with ATO, we tested a panel of AML cell lines. The cell lines include those harboring FLT3-ITD (MOLM-13, MOLM-14 and MV-4-11) or FLT3 WT (ME-1, THP-1, OCI-AML-2, HL60, NOMO-1, TUR and ML-2).
For a further series, the system named is FLT3 WT AML cells. The series can be described thus: CellTiter-Glo viability of AML cell lines and primary AML samples. Type of series: cell-based. To be noted: FLT3 WT cells (n=11), 72 hours; read-out: geometric mean EC50 (cell viability). The procedure: (§5) Exponentially growing cell lines were counted and seeded into 96-well clear, flat-bottomed polystyrene microtiter plates in a final volume of 90 μL per well. For primary AML samples, cells were seeded into 384 well plates at a density of 2×10^4 cells in a final volume of 27 μL per well. To treat cell lines or primary samples 10 μL or 3 μL, respectively, of 10× concentrations of MPC-0767, were then added to the cells to give a final concentration of 10000 nM, 5000 nM, 2500 nM, 1250 nM, 625 nM, 313 nM, 156 nM, 78 nM, 39 and 20 nM. […] Cells were seeded and treated in duplicate. After incubation for three days, cell viability was determined by measuring intracellular ATP levels using the CellTiter-Glo® assay system by adding to each well either 100 μL for 96 well plates, or 30 μL for 384 well plates. Luminescence was detected using a plate reader.
(§6) The effect of drugs on cell viability was calculated by comparing the ATP levels (luminescence counts per second) of cells exposed to test compound with those of cells exposed to vehicle (DMSO) alone. The half-maximal effective concentration (EC50) for each cell line was determined using the R DRC package (R Core Team, 2017). In brief, the dose-response curves were fitted with a four-parameter logistic regression model (LL.4) according to (Eq-1) and the absolute EC50 was estimated using a confidence interval of 0.95.

Another series relates to FLT3-ITD AML cells. The series is described as above. To be noted: FLT3-ITD cells (n=8), 72 hours; read-out: geometric mean EC50 (cell viability). In kind it is cell-based. The procedure: as §5, §6

By EC50 is commonly meant the concentration at which the effect is half-maximal. Take `C[C@H](N)C(=O)O[C@@H](C)C(=O)N1CCC(CCn2c(Sc3cc4c(cc3Br)OCO4)nc3c(N)ncnc32)CC1` [MPC-0767]: the “viability of KDM6A sgRNA cells vs non-targeting sgRNA” value with MV-4-11 cells (FLT3-ITD) is on record as “conferred resistance to MPC-0767”. Further, the EC50 in series [1] amounted to 1000 nM; in series [2], 200 nM; in the series on HL60 (HL-60) cells (Homo sapiens, HL-60) it was 1960 nM; with ME1 (ME-1) cells (ME-1), 3420 nM; in series [5] (Homo sapiens, OCI-AML2, 72 h) it was 633 nM; with FLT3 WT AML cells, 1520 nM. Also, the EC50 in the series with FLT3-ITD AML cells worked out at 576 nM. Moreover, the “MPC-0767 Sensitivity” value with HL60 (HL-60) cells was “Resistant (EC50 values above 1 μM considered resistant)”; in the series on ME1 (ME-1) cells, “Resistant (EC50 values above 1 μM considered resistant)”; in [5] (OCIAML2, 72 h), “Sensitive (cell lines having EC50 values below 1 μM were considered to be sensitive)”. In addition, the “potency against FLT3 mutants compared to FLT3 WT” value in series [3] is listed as “approximately 5 ×”. In addition, the “cell surface expression of FLT3 WT” value with FLT3 WT in BaF3 cells is listed as “reduced cell surface expression of FLT3 WT”. Besides, the “effect on body weight” value in series [4] (oral 150 mg/kg QD×17) is “without significant effects on body weight”. Further, the tumor growth inhibition in series [4] (oral 150 mg/kg QD×17, P=0.01) turned out to be 69.5%.

The values above are taken from US20200253979A1, “THERAPEUTIC METHODS RELATING TO HSP90 INHIBITORS” (AI Therapeutics, Inc., priority 2017, published 2020).
